Experimental data as given in ChEMBL document CHEMBL1201862, “PubChem BioAssay data set” (2004).
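Five compound concentrations were applied to cells in 96-well plates for 48 hours; endpoints were derived by simple linear interpolation of the resulting dose-response curve. GI50: concentration for 50% inhibition of growth.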 The source made the active and inactive calls. Rule as the data show it: active = GI50 up to about 1.1 µM and inactive = higher.

Experiments:
Assay in all cases: NCI anticancer screen, dose series, 48 h
[1] = test system: A549
[2] = test system: LOX IMVI
[3] = test system: HCT-15
[4] = test system: OVCAR-4
[5] = test system: SK-MEL-5
[6] = test system: NCI-H226
[7] = test system: NCI/ADR-RES
[8] = test system: SR
[9] = test system: CAKI-1
[10] = test system: OVCAR-3
[11] = test system: OVCAR-5
[12] = test system: SW-620
[13] = test system: U-251
[14] = test system: 786-0
[15] = test system: HOP-62
[16] = test system: RXF 393
[17] = test system: T47D
[18] = test system: NCI-H522
[19] = test system: CCRF-CEM
[20] = test system: SNB-19

Measured: GI50

O=C(O)CSSCC(=O)O
> 100 µM: [3]
inactive: [1] > 100 µM | [2] > 100 µM | [4] > 100 µM | [5] > 100 µM | [6] > 100 µM | [7] > 100 µM | [8] > 100 µM | [9] > 100 µM | [10] > 100 µM | [11] > 100 µM | [12] > 100 µM | [13] > 100 µM | [14] > 100 µM | [15] > 100 µM | [16] > 100 µM | [17] > 100 µM | [18] > 100 µM | [19] > 100 µM | [20] > 100 µM

CCCCCCCCCCCCCOCCOCCOCCCCC(O)CCCCCCCCCC1=C[C@H](C)OC1=O (stereo not given in full)
19.1 µM: [3]
inactive: [1] 7.55 µM | [2] 4.31 µM | [4] 12.3 µM | [5] 6.93 µM | [6] 12.8 µM | [7] 10 µM | [8] 2.08 µM | [9] 19.1 µM | [10] 18.6 µM | [11] 28 µM | [12] 16.4 µM | [13] 14.1 µM | [14] 17.6 µM | [15] 30.8 µM | [16] 20.1 µM | [17] 16.3 µM | [19] 9.86 µM | [20] 20.7 µM
active: [18] 0.0488 µM

CCOC(=O)c1cc(C2CCN(c3ccccc3)C2=O)c(C(=O)/C=C(/C)O)[nH]1 (stereo not given)
51.6 µM: [3]
inactive: [1] 93.8 µM | [2] 58.6 µM | [4] 63.8 µM | [5] 36.3 µM | [6] > 100 µM | [7] 73.5 µM | [8] 34.1 µM | [9] 47.8 µM | [10] > 100 µM | [11] > 100 µM | [12] > 100 µM | [13] > 100 µM | [14] 54.5 µM | [15] > 100 µM | [16] 21.6 µM | [17] 36.6 µM | [18] 67.5 µM | [19] 59.6 µM | [20] > 100 µM

C[n+]1ccc2/c(=C\C#N)c3ccccc3n21
inactive: [1] 19.1 µM | [2] 15.9 µM | [4] 21.1 µM | [5] 16.7 µM | [6] 32.5 µM | [7] > 100 µM | [8] 18.2 µM | [9] > 100 µM | [10] 14.6 µM | [11] 37.3 µM | [12] 35.1 µM | [13] 12.9 µM | [14] 52.2 µM | [15] 30.7 µM | [16] 38.1 µM | [17] 5.65 µM | [18] 24.5 µM | [19] 20 µM | [20] 4.27 µM
> 100 µM: [3]

O=C1C(CN2CCCC2)CCC1CN1CCCC1 (stereo not given)
17.7 µM: [3]
inactive: [1] > 100 µM | [2] 20.8 µM | [4] 20.7 µM | [5] 17.3 µM | [6] > 48.2 µM | [7] 23.9 µM | [8] 12.9 µM | [9] 11 µM | [10] 17.1 µM | [11] > 41.3 µM | [12] 4.12 µM | [13] > 100 µM | [14] 15.8 µM | [15] > 100 µM | [16] 20.4 µM | [17] 17.4 µM | [18] 1.9 µM | [19] 3.52 µM | [20] > 100 µM

O=C(/C=C/c1ccc(-c2ccccc2)cc1)NCc1ccc(C(=O)NCCc2ccccc2)cc1
inactive: [1] > 100 µM | [2] 41.1 µM | [4] > 100 µM | [5] > 100 µM | [6] > 100 µM | [7] > 100 µM | [8] 44.8 µM | [9] > 100 µM | [10] > 100 µM | [11] > 100 µM | [12] > 100 µM | [13] 65.3 µM | [14] 59.2 µM | [15] 60.8 µM | [16] 24.5 µM | [17] > 100 µM | [18] > 100 µM | [19] 18.5 µM | [20] > 100 µM
> 100 µM: [3]

CC(O)CC(=O)CO[C@H]1[C@H](O)[C@@H](O)[C@@H](O)[C@@H]2NC(=O)c3c(cc4c(c3O)OCO4)[C@H]21 (stereo not given in full)
inactive: [7] 1.29 µM
0.256 µM: [3]
active: [1] 0.042 µM | [2] 0.0208 µM | [4] 0.0483 µM | [5] 0.0137 µM | [6] 0.0499 µM | [8] 0.0335 µM | [9] 0.512 µM | [10] 0.0457 µM | [11] 0.0711 µM | [12] 0.109 µM | [13] < 0.015 µM | [14] 0.0439 µM | [15] 0.0289 µM | [16] 0.0208 µM | [17] 0.0222 µM | [18] 0.0242 µM | [19] 0.0184 µM | [20] < 0.0156 µM

CN(C)CCC(=O)[C@@]1(O)CC[C@H]2[C@@H]3CC=C4C[C@@H](O)CC[C@]4(C)[C@H]3CC[C@@]21C
20.1 µM: [3]
inactive: [1] 37.1 µM | [2] 13.7 µM | [4] 33.4 µM | [5] 29.9 µM | [6] 62.8 µM | [7] 26.7 µM | [8] 12.6 µM | [9] 17.5 µM | [10] 9.02 µM | [11] > 61.5 µM | [12] 17.9 µM | [13] 17.3 µM | [14] 3.68 µM | [15] 14.2 µM | [16] 9.2 µM | [17] 4.11 µM | [18] 11.9 µM | [19] 5.25 µM | [20] 25.6 µM

CC(=O)OCC1OC(OCCCOP(=O)(OCCC#N)OCC2OC(n3cnc4c(N)ncnc43)C(OC(=O)c3ccccc3)C2OC(=O)c2ccccc2)C(OC(C)=O)C(OC(C)=O)C1OC(C)=O (stereo not given)
> 100 µM: [3]
inactive: [1] > 100 µM | [2] > 100 µM | [4] > 100 µM | [5] > 100 µM | [6] > 100 µM | [7] > 100 µM | [8] > 100 µM | [9] > 100 µM | [10] > 100 µM | [11] > 100 µM | [12] > 100 µM | [13] > 100 µM | [14] > 100 µM | [15] > 100 µM | [16] > 100 µM | [17] > 100 µM | [18] 16.3 µM | [19] > 100 µM | [20] > 100 µM

CC(=O)c1cc2c(s1)C(=O)c1ccccc1C2=O
0.61 µM: [3]
inactive: [1] 3.52 µM | [4] 3.52 µM | [6] 2.61 µM | [7] 1.89 µM | [8] 5.66 µM | [9] 9.53 µM | [11] 5.25 µM | [13] 2.37 µM | [14] 5.93 µM | [15] 2.44 µM | [16] 8.18 µM | [17] 4.42 µM | [19] 1.96 µM
active: [2] 0.346 µM | [5] 0.26 µM | [10] 0.513 µM | [12] 0.951 µM | [18] 0.944 µM | [20] 0.424 µM

O=C(O)c1nn(-c2ccc(Cl)cc2)c2c1C(=O)c1ccccc1C2=O
inactive: [1] > 100 µM | [2] > 100 µM | [4] > 100 µM | [5] 20.5 µM | [6] > 100 µM | [7] > 100 µM | [8] 21.2 µM | [9] > 100 µM | [10] 24.7 µM | [11] > 100 µM | [12] > 100 µM | [13] 55.7 µM | [14] > 100 µM | [15] > 100 µM | [16] 17.5 µM | [17] > 100 µM | [18] > 100 µM | [20] > 100 µM
> 100 µM: [3]
active: [19] < 0.01 µM

CC(C)CNC(=O)Cn1c(-c2ccccc2)cc2ccccc21
> 100 µM: [3]
inactive: [1] > 100 µM | [2] > 100 µM | [4] > 100 µM | [5] > 100 µM | [6] > 100 µM | [7] > 100 µM | [8] > 100 µM | [9] > 100 µM | [10] > 100 µM | [11] > 100 µM | [12] > 100 µM | [13] > 100 µM | [14] > 100 µM | [15] > 100 µM | [16] > 100 µM | [17] > 100 µM | [18] 68.1 µM | [19] > 100 µM | [20] > 100 µM

CCOC(=O)C(CCN1CCC2(CC1)C(=O)N(C)CN2c1ccccc1)C(=O)OCC
> 100 µM: [3]
inactive: [1] > 100 µM | [2] > 100 µM | [4] > 100 µM | [5] > 100 µM | [6] > 100 µM | [7] > 100 µM | [8] > 100 µM | [9] > 100 µM | [10] > 100 µM | [11] > 100 µM | [12] > 100 µM | [13] > 100 µM | [14] > 100 µM | [15] > 100 µM | [16] > 100 µM | [17] > 100 µM | [18] > 100 µM | [19] > 100 µM | [20] > 100 µM

CCN(CC)CCCNc1ccc2nnn3c4ccc(O)cc4c(=O)c1c23
inactive: [1] 1.58 µM | [2] 2.9 µM | [4] 6.35 µM | [5] 7.55 µM | [6] 6.87 µM | [7] 7.14 µM | [8] 1.69 µM | [9] 4.08 µM | [10] 11.4 µM | [11] 13.8 µM | [12] 2.69 µM | [13] 2.33 µM | [14] 5.71 µM | [15] 10.7 µM | [16] 1.64 µM | [17] 22.3 µM | [18] 3.05 µM | [19] 2.29 µM | [20] 10.1 µM
5.06 µM: [3]
